For four molecules, EC50 results are on record in patent US10421779B2, “Carbazole compound having anti-virus activity” (priority 2016, dated 2019).

pEC50: −log10 of the molar value.

Holding throughout (assay type): cell-based
The test system of test [1] is hepatitis C virus mutant Y93H of the NS5A region. Nature of the test: Efficacy on resistant mutant Y93H. The settings on record: read-out: EC50 Y93H. The source says:
(§1) As a mutant resistant to hepatitis C virus, L31V and Y93H of the NS5A region, and double mutants thereof were applied.

Test [2] has as its system hepatitis C virus mutant L31V of the NS5A region. Nature of the test: Efficacy on resistant mutant L31V. The settings on record: read-out: EC50 L31V.
Description: as §1

The subject of test [3] is HCV genotype 1 b (HCV replicon system). Nature of the test: HCV replicon system genotype 1b, Renilla luciferase activity. To be noted: Hepatitis C virus, 72 h; HCV genotype 1b replicon, Rluc, 3 days; read-out: Replicon EC50 1b type. In a few lines:
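Genotype 1b replicon carrying Renilla luciferase and 1b non-structural genes, treated with compound at various concentrations. Luciferase activity read after 3 days relative to control to derive EC50.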
A general note: Replicon systems follow genome replication, usually without infectious particles.

Test [4] concerns hepatitis C virus double mutant L31V and Y93H of the NS5A region. Description: Efficacy on resistant double mutant (L31V and Y93H). To be noted: read-out: EC50 Double mutant.
Description: as §1

As for `COC(=O)N[C@@H](C(=O)N1CCC[C@H]1C(=O)Nc1ccc2c3ccc(NC(=O)[C@@H]4CCCN4C(=O)[C@H](NC(=O)OC)c4ccccc4)cc3n(CC3CC3)c2c1)c1ccccc1` [Example 16, dimethyl ((1R,1′R)-((2S,2′S)-(((9-(cyclopropylmethyl)-9H-carbazole-2,7-diyl)bis(azanediyl))bis(carbonyl))bis(pyrrolidine-2,1-diyl))bis(2-oxo-1-phenylethane-2,1-diyl))dicarbamate], the negative-log EC50 (pEC50) in test [1] is 7.00 to 8.00; in test [2], 8.00 to 9.00; in test [3], 10.74; in test [4], less than 6.00.

Regarding `COC(=O)N[C@@H](C(=O)N1CCC[C@H]1C(=O)Nc1ccc2c3ccc(NC(=O)[C@@H]4CCCN4C(=O)[C@H](NC(=O)OC)c4ccccc4)cc3n(Cc3ccncc3)c2c1)c1ccccc1` [Example 19, dimethyl ((1R,1′R)-((2S,2′S)-(((9-(pyridine-4-ylmethyl)-9H-carbazole-2,7-diyl)bis(azanediyl))bis(carbonyl))bis(pyrrolidine-2,1-diyl))bis(2-oxo-1-phenylethane-2,1-diyl))dicarbamate], the pEC50 was less than 6.00 in test [1], 8.00 to 9.00 in test [2], 9.61 in test [3] and less than 6.00 in test [4].

Regarding `COC(=O)N[C@@H](C(=O)N1CCC[C@H]1C(=O)Nc1ccc2c3ccc(NC(=O)[C@@H]4CCCN4C(=O)[C@H](NC(=O)OC)c4ccccc4)cc3n(Cc3cccc(C)n3)c2c1)c1ccccc1` [Example 20, dimethyl ((1R,1′R)-((2S,2′S)-(((9-((6-methylpyridine-2-yl)methyl)-9H-carbazole-2,7-diyl)bis(azanediyl))bis(carbonyl))bis(pyrrolidine-2,1-diyl))bis(2-oxo-1-phenylethane-2,1-diyl))dicarbamate], the pEC50 was less than 6.00 in test [1], 7.00 to 8.00 in test [2], 9.65 in test [3] and less than 6.00 in test [4].

`COCCn1c2cc(NC(=O)[C@@H]3CCCN3C(=O)[C@H](NC(=O)OC)c3ccccc3)ccc2c2ccc(NC(=O)[C@@H]3CCCN3C(=O)[C@H](NC(=O)OC)c3ccccc3)cc21` [Example 21, dimethyl ((1R,1′R)-((2S,2′S)-(((9-(2-methoxyethyl)-9H-carbazole-2,7-diyl)bis(azanediyl))bis(carbonyl))bis(pyrrolidine-2,1-diyl))bis(2-oxo-1-phenylethane-2,1-diyl))dicarbamate]: the pEC50 was 6.00 to 7.00 in test [1], 7.00 to 8.00 in test [2], 9.96 in test [3] and less than 6.00 in test [4].

One may read the pEC50 as the negative decadic logarithm of the EC50, by convention in mol/L.
